Test results: patent US20250154198A1, “PEPTIDE INHIBITORS OF INTERLEUKIN-23 RECEPTOR” (Zealand Pharma A/S, priority 2021, published 2025)
pKi: −log10 of the molar value. Like-named read-outs stand apart in the source and are kept apart here. *1 amine or outer side, *2 acyl side, *3 side chain or, on linkers, in order; H or OH if unused. Where a SMILES comes first, the peptide text is derived from it. Bridges are numbered along the chain shown (N, C = ends). [ ]: non-standard residue; d: D form. The star is where a group is joined. Trp(4-F) = N[C@@H](Cc1c[nH]c2cccc(F)c12)C(=O)O; Trp(7-F) = N[C@@H](Cc1c[nH]c2c(F)cccc12)C(=O)O; Phe(3,4-Me2) = Cc1ccc(C[C@H](N)C(=O)O)cc1C; 2Nal = N[C@@H](Cc1ccc2ccccc2c1)C(=O)O; AEF = NCCOc1ccc(C[C@H](N)C(=O)O)cc1; X24 = O=C(CCc1ccc(N[*:1])cc1)[*:2]; X1 = O=C(Cc1ccc(CN[*:1])cc1)[*:2]; 3Pal = N[C@@H](Cc1cccnc1)C(=O)O; αMeL = CC(C)C[C@](C)(N)C(=O)O; CH2COCH2 = O=C(C[*:1])C[*:2]; αMeV = CC(C)[C@](C)(N)C(=O)O; Pyrrolidide = C1CCN(*)C1; Dab = NCC[C@H](N)C(=O)O

Target: T1, human IL-23R (Homo sapiens, UniProt Q5VWK5)
T1 construct: UniProtKB—Q5VWK5, amino acids 22-629; secretion signal of the plasmid (Promega N1371); expressed in transfected cells
T1 sequence (Q5VWK5 22-629): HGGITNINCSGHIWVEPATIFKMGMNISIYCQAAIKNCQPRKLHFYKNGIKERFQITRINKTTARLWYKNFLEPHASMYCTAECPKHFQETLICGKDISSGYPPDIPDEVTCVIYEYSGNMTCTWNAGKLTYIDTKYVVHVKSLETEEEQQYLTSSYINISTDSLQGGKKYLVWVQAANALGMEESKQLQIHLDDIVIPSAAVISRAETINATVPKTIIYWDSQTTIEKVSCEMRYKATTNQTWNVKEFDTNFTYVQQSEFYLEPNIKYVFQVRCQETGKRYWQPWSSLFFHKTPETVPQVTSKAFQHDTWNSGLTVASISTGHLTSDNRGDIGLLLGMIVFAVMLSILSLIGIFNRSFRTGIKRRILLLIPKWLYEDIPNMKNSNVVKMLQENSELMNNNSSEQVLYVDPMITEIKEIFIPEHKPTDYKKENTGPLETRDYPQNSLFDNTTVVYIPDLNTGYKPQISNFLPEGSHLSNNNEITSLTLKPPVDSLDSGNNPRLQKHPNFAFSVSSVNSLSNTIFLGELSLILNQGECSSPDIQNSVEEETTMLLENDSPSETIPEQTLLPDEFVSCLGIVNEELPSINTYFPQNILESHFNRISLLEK
Test: Binding assay (NanoBRET displacement of fluorophore-labelled reference compound) for estimating binding affinity to human IL-23R
Text: Binding Assay for Estimating Binding Affinity of Compounds to Human IL-23R
The compound binding affinity for IL-23R was estimated by the ability of compounds to displace a fluorophore-labelled reference compound from the human IL-23R. The assay principle relies on Bioluminescence Resonance Energy Transfer (BRET) between a fluorophore-labelled reference compound binding to the IL-23R part of a fusion protein consisting of the IL-23R fused to a Nanoluc luciferase enzyme (Nanoluc). The Nanoluc is placed in the N-terminus in close proximity to the binding domain of the ligand. Upon close proximity between the fluorophore of the fluorophore-labelled compound and the Nanoluc of the fusion protein, bioluminescence energy generated from conversion of a Nanoluc substrate, is transferred to the fluorophore resulting in an increase in BRET. In presence of an unlabelled compound, the unlabelled compound displaces the fluorophore-labelled peptide from its binding site resulting in a decrease in BRET. The concentration for which half of the fluorophore-labelled peptide is displaced by the unlabelled compound depends on the affinity of the compound for the IL-23R, and is termed the IC50 concentration. An estimated affinity (K) of the unlabelled compound for the IL-23R may be calculated using the Cheng-Prussov equation, which takes into account the concentration of the fluorophore-labelled compound used, and the affinity of the fluorophore-labelled compound for IL-23R.
The plasmid also contained a gene to confer resistance for the antibiotic hygromycin. A cell line stably expressing the Nluc-IL23R fusion protein was generated by transfection of HEK293 cells with the expression plasmid and selected with hygromycin for 3 weeks in Growth medium consisting of DMEM w/Glutamax-I containing, 10% V/V FBS, 1% V/V P/S, 1 mM Sodium Pyruvate, and 1×NEAA, and 0.3 mg/mL hygromycin. The remaining cells were propagated and considered a stable expressing Nluc-IL23R fusion protein pool clone.
Cells expressing the Nluc-IL23R fusion protein were expanded in Growth medium and membranes prepared by homogenization of a cell pellet from 18 T175 flasks (4° C. in subsequent steps). The cell pellet was lysed Tris 10 mM, 7.5, 1 mM EDTA and protease inhibitors (Complete, Roche) and homogenized using a 15 mL glass-dounce by 50 strokes. The homogenate was spun at spin @1500 rpm for 10 min, the supernatant transferred to SV-34 tubes and spun at 40000 g for 20 min at 4° C. to pellet the crude membranes. The supernatant was then removed, the pellet resuspended in 5 mL buffer containing 50 mM HEPES pH 7.4, 5 mM EGTA, and 5 mM MgCl2, and homogenized. Aliquots of the resuspended and homogenized membranes containing the Nluc-IL23R fusion protein were stored at −80° C. until use.
The plate was sealed with light impermeable plate seals, and incubated on a orbital shaker 400 rpm for 2 hours at room temperature. To determine the BRET ratio, the plate seal was removed and 25 μL of the Nanoluc substrate (Promega N1572) diluted 1:500 was added to each well and incubated for 1-2 minutes on an orbital shaker at 400 rpm. […] The BRET ratio was calculated as the fluorescence from the TAMRA/nanoluc bioluminescence. The IC50 for each compound was determined by computer-aided curve fitting using a 4-parameter logistic (4PL) non-linear model.

[1] = Table 3-1, read-out: Ki hIL-23R

Q: How did the pKi [1] turn out when CC[C@H](C)[C@@H]1NC(=O)Cc2ccc(cc2)CNC(=O)CC[C@@H](C(=O)NCC(=O)N[C@@H](Cc2cccnc2)C(N)=O)NC(=O)[C@](C)(C(C)C)NC(=O)[C@H](Cc2ccc(C)c(C)c2)NC(=O)[C@H](Cc2ccc(OCCN)cc2)NC(=O)[C@@H]2CCNC(=O)CC[C@H](NC1=O)C(=O)N[C@@H](Cc1c[nH]c3ccccc13)C(=O)N[C@@H](CCC(N)=O)C(=O)N2 [Compound 158, [4-Aminomethyl-phenylacetyl](1c)*IE(2c)WQ[Dab](2c)[Y(2-aminoethoxy)][F(3,4-Me)][2-Me-Val]E(1c)G[3-(3-Pyridyl)-Ala]-[NH2]] ([X1]IEWQ[Dab][AEF][Phe(3,4-Me2)][αMeV]EG[3Pal]-NH2; lactam 3-6, N-10) was run?
A: The pKi was 10.57.

Q: CC(C)C[C@]1(C)NC(=O)[C@H](Cc2ccc3ccccc3c2)NC(=O)[C@H](Cc2ccc(OCCN)cc2)NC(=O)[C@@H]2CCNC(=O)CC[C@H](NC(=O)[C@H](CO)NC(=O)Cc3ccc(cc3)CNC(=O)CC[C@@H](C(=O)N[C@@H](CCN)C(N)=O)NC1=O)C(=O)N[C@@H](Cc1c[nH]c3ccccc13)C(=O)N[C@@H](CCC(=O)N1CCCC1)C(=O)N2 [Compound 146, [4-Aminomethyl-phenylacetyl](1c)*SE(2c)W[Q(pyrrolidin)][Dab](2c)[Y(2-aminoethoxy)][2-Nal][2-Me-Leu]E(1c)[Dab]-[NH2]] ([X1]SEWE(Pyrrolidide)[Dab][AEF][2Nal][αMeL]E[Dab]-NH2; lactam 3-6, N-10) was tested. Which pKi [1] did it give?
A: The pKi was 9.00.

Q: CC(C)C[C@]1(C)NC(=O)[C@H](Cc2ccc3ccccc3c2)NC(=O)[C@H](Cc2ccc(OCCN)cc2)NC(=O)[C@@H]2CCNC(=O)CC[C@H](NC(=O)[C@H](CO)NC(=O)Cc3ccc(cc3)CNC(=O)CC[C@@H](C(=O)N[C@@H](CCN)C(N)=O)NC1=O)C(=O)N[C@@H](Cc1c[nH]c3cccc(F)c13)C(=O)N[C@@H](CCC(N)=O)C(=O)N2 [Compound 138, [4-Aminomethyl-phenylacetyl](1c)*SE(2c)[4-F-Trp]Q[Dab](2c)[Y(2-aminoethoxy)][2-Nal][2-Me-Leu]E(1c)[Dab]-[NH2]] ([X1]SE[Trp(4-F)]Q[Dab][AEF][2Nal][αMeL]E[Dab]-NH2; lactam 3-6, N-10) was tested. Which pKi [1] did it give?
A: Its pKi is 9.14.

Q: How did the pKi (Table 2-10b, read-out: Ki IL-23R) turn out when CC(C)C[C@]1(C)NC(=O)[C@H](Cc2ccc3ccccc3c2)NC(=O)[C@H](Cc2ccc(OCCN)cc2)NC(=O)[C@@H]2CSCC(=O)CSC[C@H](NC(=O)[C@H](CO)NC(=O)CCc3ccc(cc3)NC(=O)CC[C@@H](C(=O)N[C@@H](CCCNC(=N)N)C(N)=O)NC1=O)C(=O)N[C@@H](Cc1c[nH]c3ccccc13)C(=O)N[C@@H](CCC(N)=O)C(=O)N2 [Compound 51, [3-(4-Aminophenyl)propanoyl](1c)*SC(2a)WQC(2a)[Y(2-aminoethoxy)][2-Nal][2-Me-Leu]E(1c)R-[NH2]] ([X24]SCWQC[AEF][2Nal][αMeL]ER-NH2; linker 3-6 via CH2COCH2; lactam N-10) was run?
A: Its pKi is 8.70.

Q: Which “potency for IL-23R (in words)” value (in comparison with Protagonist's Compound C) does the source give for CC(C)C[C@]1(C)NC(=O)[C@H](Cc2c[nH]c3ccccc23)NC(=O)[C@H](Cc2c[nH]c3ccccc23)NC(=O)[C@@H]2CSCC(=O)CSC[C@H](NC(=O)[C@H]([C@@H](C)O)NC(=O)[C@@H](NC(=O)CN)CSCC(=O)CSC[C@@H](C(=O)N[C@@H](CO)C(N)=O)NC1=O)C(=O)N[C@@H](Cc1c[nH]c3ccccc13)C(=O)N[C@@H](CCC(=O)O)C(=O)N2 (single isomer, unassigned) [I5 (isomer 3), H-GC(1a)TC(2a)WEC(2a)WW[2-Me-Leu]C(1a)S-[NH2], reference compound] here?
A: Its value is “lower potency”.

Q: CC(C)C[C@]1(C)NC(=O)[C@H](Cc2ccc3ccccc3c2)NC(=O)[C@H](Cc2ccc(OCCN)cc2)NC(=O)[C@@H]2CSCC(=O)CSC[C@H](NC(=O)[C@H](CO)NC(=O)Cc3ccc(cc3)CNC(=O)CC[C@@H](C(=O)N[C@H](CCCNC(=N)N)C(=O)O)NC1=O)C(=O)N[C@@H](Cc1c[nH]c3ccccc13)C(=O)N[C@@H](CCC(N)=O)C(=O)N2 [Compound 108, [4-Aminomethyl-phenylacetyl](1c)*SC(2a)WQC(2a)[Y(2-aminoethoxy)][2-Nal][2-Me-Leu]E(1c)[{d}R]-[OH]] ([X1]SCWQC[AEF][2Nal][αMeL]E[dR]-OH; linker 3-6 via CH2COCH2; lactam N-10) was tested. Which pKi [1] did it give?
A: The pKi was 10.00.

Q: With CC(C)C[C@]1(C)NC(=O)[C@H](Cc2ccc3ccccc3c2)NC(=O)[C@H](Cc2ccc(OCCN)cc2)NC(=O)[C@@H]2CCNC(=O)CC[C@H](NC(=O)[C@H](CO)NC(=O)Cc3ccc(cc3)CNC(=O)CC[C@@H](C(=O)N[C@@H](CCN)C(N)=O)NC1=O)C(=O)N[C@@H](Cc1c[nH]c3c(F)cccc13)C(=O)N[C@@H](CCC(N)=O)C(=O)N2 [Compound 139, [4-Aminomethyl-phenylacetyl](1c)*SE(2c)[7-F-Trp]Q[Dab](2c)[Y(2-aminoethoxy)][2-Nal][2-Me-Leu]E(1c)[Dab]-[NH2]] ([X1]SE[Trp(7-F)]Q[Dab][AEF][2Nal][αMeL]E[Dab]-NH2; lactam 3-6, N-10) as the molecule, how does the pKi [1] read?
A: The pKi was 9.21.

Q: With CC(C)[C@]1(C)NC(=O)[C@H](Cc2ccc3ccccc3c2)NC(=O)[C@H](Cc2ccc(OCCN)cc2)NC(=O)[C@@H]2CCNC(=O)CC[C@H](NC(=O)[C@H](CO)NC(=O)Cc3ccc(cc3)CNC(=O)CC[C@@H](C(=O)N[C@@H](CCN)C(N)=O)NC1=O)C(=O)N[C@@H](Cc1c[nH]c3ccccc13)C(=O)N[C@@H](CCC(N)=O)C(=O)N2 [Compound 136, [4-Aminomethyl-phenylacetyl](1c)*SE(2c)WQ[Dab](2c)[Y(2-aminoethoxy)][2-Nal][2-Me-Val]E(1c)[Dab]-[NH2]] as the molecule, how does the pKi [1] read?
A: The pKi was 9.77.

Q: With CC(C)C[C@]1(C)NC(=O)[C@H](Cc2ccc3ccccc3c2)NC(=O)[C@H](Cc2ccc(OCCN)cc2)NC(=O)[C@@H]2CSCC(=O)CSC[C@H](NC(=O)[C@H](CO)NC(=O)Cc3ccc(cc3)CNC(=O)CC[C@@H](C(=O)N[C@@H](CCCNC(=N)N)C(=O)N[C@@H](Cc3cccnc3)C(N)=O)NC1=O)C(=O)N[C@@H](Cc1c[nH]c3ccccc13)C(=O)N[C@@H](CCC(N)=O)C(=O)N2 [Compound 147, [4-Aminomethyl-phenylacetyl](1c)*SC(2a)WQC(2a)[Y(2-aminoethoxy)][2-Nal][2-Me-Leu]E(1c)R[3-(3-Pyridyl)-Ala]-[NH2]] ([X1]SCWQC[AEF][2Nal][αMeL]ER[3Pal]-NH2; linker 3-6 via CH2COCH2; lactam N-10) as the molecule, how does the pKi [1] read?
A: Its pKi is 10.92.

Q: How did the pKi [1] turn out when CC(C)C[C@]1(C)NC(=O)[C@H](Cc2ccc3ccccc3c2)NC(=O)[C@H](Cc2ccc(OCCN)cc2)NC(=O)[C@@H]2CCNC(=O)CC[C@H](NC(=O)[C@H](C(C)C)NC(=O)Cc3ccc(cc3)CNC(=O)CC[C@@H](C(=O)N[C@@H](CCN)C(N)=O)NC1=O)C(=O)N[C@@H](Cc1c[nH]c3ccccc13)C(=O)N[C@@H](CCC(N)=O)C(=O)N2 [Compound 126, [4-Aminomethyl-phenylacetyl](1c)*VE(2c)WQ[Dab](2c)[Y(2-aminoethoxy][2-Nal][2-Me-Leu]E(1c)[Dab]-[NH2]] ([X1]VEWQ[Dab][AEF][2Nal][αMeL]E[Dab]-NH2; lactam 3-6, N-10) was run?
A: The pKi was 9.14.
